Data on three compounds can be found in US20070192880A1, “Horming response element binding transregulators” (UNIVERSITY OF ROCHESTER, priority 2003, published 2007).

For one experiment, the system named is MCF-7 cells. Put plainly: cell cycle analysis (FACS, EGFP-positive cells), transfected MCF-7 cells. It is filed as cell-based, human. As to the method:
(§1) Transfection and processing of cells were done as described in legend of FIG. 5.
MDA-MB-231 and MCF-7 cells were grown as described above. Cells were then transiently transfected with the EGFP vector bearing a cDNA for ERα, CDC or an EBA. Twenty-four hours after transfection, cells were collected by trypsinization, washed in phosphate buffered saline (PBS) and fixed with 1% paraformaldehyde in PBS for one hour. Cells were permeabilized in 70% Ethanol overnight and stained with 50 μg/ml propidium iodide (PI, Sigma-Aldrich) for one hour for flow cytometry analysis. Samples were analyzed on a FACS EPICS Elite EPS flow cytometer (Coulter Corp., Hialeah, Fla.). The percentages of cells at G1 phase were assessed among treatment groups and expressed as percent change compared to cells transfected with EGFP vector bearing no cDNA.

The test system of experiment [1] is human Catepsin D (CatD) gene promoter. Put plainly: CatD promoter luciferase reporter, COS-1 cells. Type of experiment: cell-based, African green monkey. The note with it: without or with 10^−9 M E2 or 10^−7 M 4-OHT, 24 h. From the text: Transfection and processing of cells were done as described in legend of FIG. 7. The reporter vector contains the human Catepsin D (CatD) gene promoter that drives the firefly luciferase cDNA expression. The mean±SEM indicates three independent experiments performed in duplicate.
(§2) The CatD and C3 promoters were generated by PCR using pCD3542 (Augereau P. et al. Mol Endocr 8:693-703) and pC3TI (Fan JD. (1996) Mol Endocrinol 10: 1605-16) reporter plasmids as templates, respectively. A fragment of 730 bp [−750 to −22, +1 is referred to the first ATG, (Parker, M. G. (1998) Biochem Soc Symp 63, 45-50)] of the promoter region of CatD gene or 580 bp [−516 to +61, +1 as the transcription start site) of the C3 gene (Tzukerman, M. T. et al. (1994) Mol Endocrinol 8, 21-30)] was generated. PCR fragments were then inserted into the reporter plasmid pGL3-Basic linearized with appropriate restriction enzymes.
(§3) COS-1 cells were transfected with a reporter construct bearing CatD or C3 promoter together with the expression vector bearing none (V, as control), cDNA for ERα or an EBR. Following a transfection, cells were treated without or with 10^−9 M E2 or 10^−7 M 4-OHT for 24 h.

The subject of another experiment is human C3 gene promoter. Put plainly: C3 promoter luciferase reporter, COS-1 cells. Type of experiment: cell-based, African green monkey.
Excerpt: Transfection and processing of cells were done as described in legend of FIG. 7. Shown are the mean±SEM of three independent experiments performed in duplicate and expressed as fold changes compare to the parent expression vector (V), which was set to one.
as §2, §3
In general terms: A reporter such as luciferase makes a cellular process visible.

The test system of experiment [2] is pS2, C3 and Oxytocin promoter constructs. Put plainly: pS2, C3 and Oxytocin promoter luciferase reporters, MCF-7 cells. Type of experiment: cell-based, human. The note with it: absence or presence of 10^−9 M E2, FIG. 6A. As to the method: as §1
(§4) Culturing and transfection of the mammalian COS-1 and […] MDA-MB-231 cells were described previously (Muyan, M. et al. (2001) Mol Cell Endocrinol 182,249-263; Yi, P. et al. (2002) Mol Endocrinol 16, 1810-1827), with the exceptions that 48 well cell culture plates were used and Trans-IT LTI transfection reagent (Mirus Corp., Madison, Wis.). Luciferase assays were performed with a Dual Luciferase Assay kit (Promega) according to the manufacture's recornmendations. Steroid hormones and 9-cis retinoic acid were purchased from Sigma-Aldrich (St. Louis, Mo.). For transfection of MDA-MB-231 and MCF-7 cells, the cells were incubated for three days in a phenol red-free DMEM supplemented with 10% charcoal-dextran treated fetal bovine serum (CD-FBS). Cells were transfected with appropriate expression vectors using Lipofectamine 2000 transfection reagent (Invitrogen).

The next experiment has as its system RARα promoter. Put plainly: RARα promoter luciferase reporter, MCF-7 cells. The note with it: without or with 10^−9 M E2. Type of experiment: cell-based, human. As to the method: as §1, §4
The test system of experiment [3] is ERE-driven TATA box promoter. Put plainly: luciferase reporter, consensus ERE upstream of TATA box promoter, COS-1 cells. It is filed as cell-based, African green monkey. From the text: Proteins were probed with a Flag antibody followed by a fluorescein-conjugated secondary antibody for visualization (FITC). DAPI staining indicates the nucleus. […] (*) denotes mutants with an impaired DNA binding finction, while VP16* depicts the activation function defective construct. The reporter plasmid contained either one (1× ERE) or two copies (2× ERE) of the consensus ERE in tandem located upstream of a simple promoter, TATA box, driving the expression of the firefly luciferase cDNA. The transfection efficiency was monitored by the co-expression of 0.5 ng of a reporter plasmid, pCMV-RL that drives the expression of Renilla luciferase cDNA. Cells were treated with or without 10^−9 M E2 for 24 h. The cell extracts were assayed for luciferase enzymes, and the normalized firefly/Renilla luciferase activities are presented as fold changes compare to the control, which was set to one. Shown are the mean±SEM of three independent experiments performed in duplicate.
Culturing and transfection of the mammalian COS-1 and […] MDA-MB-231 cells were described previously (Muyan, M. et al. (2001) Mol Cell Endocrinol 182,249-263; Yi, P. et al. (2002) Mol Endocrinol 16, 1810-1827), with the exceptions that 48 well cell culture plates were used and Trans-IT LTI transfection reagent (Mirus Corp., Madison, Wis.). […]

“Also recorded” adds a separate entry of the source.

4-hydroxytamoxifen [Construct 4-OHT]: in the experiment on MCF-7 cells (medium with untreated FBS, 4-OHT 10^−7 M), the “cells accumulated in the G1 phase” value is reported as “increased the cell population in the G1 phase”. In experiment [1], the “effect on CatD promoter reporter enzyme activity” value was “did not alter the transcription of the reporter enzyme mediated by ERα; also recorded: prevented the E2-ERα complex-mediated augmentation”. Moreover, the “effect on C3 promoter reporter enzyme activity” value in the experiment on human C3 gene promoter was “effectively decreased the transcription induction”.
Turning to `C[C@]12CC[C@@H]3c4ccc(O)cc4CC[C@H]3[C@@H]1CC[C@@H]2O` [Construct E2, estradiol 17β], the “reporter enzyme activity from pS2, C3 and Oxytocin promoter constructs” value in experiment [2] was “enhanced reporter enzyme activity”. In addition, in the experiment on RARα promoter, the “transcriptional response from the RARα promoter” value is on record as “enhanced the reporter activity”. The “G1/S phase transition / cell cycle progression” value in the experiment on MCF-7 cells (charcoal-dextran treated FBS, E2 10^−9 M) is “enhanced the G1/S phase transition”.
For the compound “VP16: activation domain of the herpes simplex virion protein VP16 alone, residues 403-490”, in experiment [3], the “effect on transcription from ERE-TATA reporter” value is listed as “did not alter the transcription”.
